According to publication PMC12085588 (Scientific Reports, 2025):
Read-outs that look alike come from different tables or passages of the source.

Columns and labels:
[1] = tested on: IAV H1N1 strain A/Puerto Rico/8/1934; assay: microbe, parasite or virus in culture; type: cell-based, influenza A virus; details: for IC50: Influenza A virus, H1N1, A549, 48 h
A549 cells = assay: Cytotoxicity assay; type: cell-based, human
Cytotoxicity assay = type: cell-based, human; details: human, A549 cells
[2] = tested on: IAV H1N1 strain A/Puerto Rico/8/1934; assay: microbe, parasite or virus in culture; type: cell-based, influenza A virus
[3] = tested on: IAV H1N1 strain A/Puerto Rico/8/1934; assay: microbe, parasite or virus in culture; type: cell-based, influenza A virus; remark: listed apart in the source
[4] = tested on: IAV H1N1 strain A/Puerto Rico/8/1934; assay: microbe, parasite or virus in culture; type: cell-based, influenza A virus; remark: listed apart in the source
[5] = tested on: IAV H1N1 strain A/Puerto Rico/8/1934; assay: microbe, parasite or virus in culture; type: cell-based, influenza A virus; remark: listed apart in the source
[6] = tested on: IAV H1N1 strain A/Puerto Rico/8/1934; type: cell-based, influenza A virus
[7] = tested on: dengue virus serotype 2 (DENV-2); details: cells treated 2 h before viral infection (-2 h); ref 15 (Oo et al.); cited from earlier work
[8] = tested on: host antiviral genes (IFITM-1, ISG15, ISG20, Mx-A, OAS-1, RSAD2, SHFL) in A549 cells; type: cell-based, human
[9] = after 48 h of incubation at concentrations of up to 1000 μM

SMILES | IC50 [1] | cytotoxicity on A549 cells (A549 cells; [9]) | CC50 at 3 days (Cytotoxicity assay) | viral RNA reduction, attachment assay ([2]; 25 μM) | IC50 ([2]; Influenza A virus, H1N1, A549, read-out: IC50 of diosmin, attachment assay) | viral RNA reduction, virucidal assay ([3]; 25 μM) | IC50 ([3]; Influenza A virus, H1N1, A549, read-out: IC50 of diosmin, virucidal assay) | reduction of viral RNA, entry assay ([4]; 25 μM) | IC50 ([4]; Influenza A virus, H1N1, A549, read-out: IC50 of diosmin, entry assay) | viral RNA reduction, post-entry assay ([5]; 25 μM) | IC50 ([5]; Influenza A virus, H1N1, A549, read-out: IC50 of diosmin, post-entry assay) | viral RNA levels [1] | percentage of viral RNA copy numbers vs virus control [6] | suppression of DENV-2 RNA [7] | cytotoxicity on A549 cells (A549 cells; after 48 h of incubation at concentrations of up to 5000 μM) | fold change of ISG15 expression (relative quantification) [8] | fold change of Mx-A expression (relative quantification) [8] | fold change of OAS-1 expression (relative quantification) [8] | fold change of SHFL expression (relative quantification) [8]
O=c1c(O)c(-c2ccc(O)c(O)c2)oc2cc(O)ccc12 [Fisetin] | 143 ± 6.19 µM | no significant cytotoxicity | 1190 ± 3.52 µM |  |  |  |  |  |  |  |  |  |  |  |  |  |  |  | 
O=c1cc(-c2ccc(O)c(O)c2)oc2c([C@@H]3O[C@H](CO)[C@@H](O)[C@H](O)[C@H]3O)c(O)cc(O)c12 [Orientin] | 8.98 ± 2.03 µM | no significant cytotoxicity | 1043 ± 3.41 µM |  |  |  |  |  |  |  |  |  |  |  |  |  |  |  | 
COc1ccc(-c2cc(=O)c3c(O)cc(O[C@@H]4O[C@H](CO[C@@H]5O[C@@H](C)[C@H](O)[C@@H](O)[C@H]5O)[C@@H](O)[C@H](O)[C@H]4O)cc3o2)cc1O [Diosmin, diosmetin 7-O-rutinoside] | 2.91 ± 3.22 µM |  | 11300 µM | exceeding 40% | 13.3 ± 2.37 µM | exceeding 40% | 41.3 ± 4.56 µM | under 40% | 39.2 ± 0.63 µM | exceeding 40% | 12.2 ± 1.55 µM | less than 20% | significant reduction | over 50% | no significant cytotoxicity | 6.774 | 2.163 | 2.035 | 4.148
